Among the data in US9150526B2, “Biaryl-propionic acid derivatives and their use as pharmaceuticals” (SANOFI, priority 2013, dated 2015) are IC50 values, retold here.

The experiment concerns Recombinant human cathepsin A. The experiment can be described thus: Cathepsin A inhibitory activity (Bodipy FL-bradykinin substrate, microfluidic capillary electrophoresis). Type of experiment: biochemical. To be noted: read-out: CATH A IC50. The procedure: Pharmacological Tests a) Cathepsin a Inhibitory Activity
Recombinant human cathepsin A (residues 29-480, with a C-terminal 10-His tag; R&D Systems, #1049-SE) was proteolytically activated with recombinant human cathepsin L (R&D Systems, #952-CY). Briefly, cathepsin A was incubated at 10 μg/ml with cathepsin L at 1 μg/ml in activation buffer (25 mM 2-(morpholin-4-yl)-ethanesulfonic acid (MES), pH 6.0, containing 5 mM dithiothreitol (DTT)) for 15 min at 37° C.
The activated cathepsin A was diluted in assay buffer (25 mM MES, pH 5.5, containing 5 mM DTT) and mixed with the test compound (dissolved in assay buffer containing (v/v) 3% DMSO) or, in the control experiments, with the vehicle in a multiple assay plate. After incubation for 15 min at room temperature, as substrate then bradykinin carrying an N-terminal ®Bodipy FL (4,4-difluoro-5,7-dimethyl-4-bora-3a,4a-diaza-s-indacene-3-propionyl) label (JPT Peptide Technologies GmbH; dissolved in assay buffer) was added to the mixture. The final concentration of cathepsin A was 833 ng/ml and the final concentration of labeled bradykinin 2 μM. After incubation for 15 min at room temperature the reaction was stopped by the addition of stop buffer (130 mM 2-(4-(2-hydroxy-ethyl)-piperazin-1-yl)-ethanesulfonic acid, pH 7.4, containing (v/v) 0.013% ®Triton X-100, 0.13% Coating Reagent 3 (Caliper Life Sciences), 6.5% DMSO and 20 μM ebelactone B (Sigma, # E0886)).
Uncleaved substrate and product were then separated by a microfluidic capillary electrophoresis on a LabChip® 3000 Drug Discovery System (12-Sipper-Chip; Caliper Life Sciences) and quantified by determination of the respective peak areas. Substrate turnover was calculated by dividing product peak area by the sum of substrate and product peak areas, and the enzyme activity and the inhibitory effect of the test compound thus quantified.

Structures are written as SMILES.

For orientation: IC50 means the concentration that gives 50% inhibition. Regarding `COc1ccc(Cl)cc1-c1cccc(C(CC(=O)O)c2nccs2)c1` (stereo not shown) [compound 1], the IC50 was determined as 160 nM.
On to `COc1ccc(C(C)C)cc1-c1cccc(C(CC(=O)O)c2nccs2)c1` (stereo not shown) [compound 2], for which the IC50 amounted to 132 nM.
Consider `COc1ccc(F)cc1-c1cccc(C(CC(=O)O)c2nccs2)c1` (stereo not shown) [compound 3], for which the concentration for half-maximal inhibition (IC50) was 160 nM.
With `COc1ccc(C(C)(C)C)cc1-c1cccc(C(CC(=O)O)c2nccs2)c1` (stereo not shown) [compound 4], the half-inhibitory concentration (IC50) worked out at 119 nM.
Under `COc1ccc(C(C)(C)C)cc1-c1cccc([C@H](CC(=O)O)c2nccs2)c1` [compound 5] stands 35 nM; under `COc1ccc(C(C)(C)C)cc1-c1cccc([C@@H](CC(=O)O)c2nccs2)c1` [compound 6], 3380 nM; under `COc1cccc(OC)c1-c1cc(F)cc(C(CC(=O)O)c2ncc(C)s2)c1` (stereo not shown) [compound 7], 5 nM.
Turning to `COc1ccc(Cl)cc1-c1cc(Cl)cc(C(CC(=O)O)c2ncc(C)s2)c1` (stereo not shown) [compound 8], the half-maximal inhibitory concentration (IC50) was 34 nM.
Under `COc1ccc(C(C)(C)C)cc1-c1cccc(C(CC(=O)O)c2nnc(C)o2)c1` (stereo not shown) [compound 9] stands 61 nM; under `COc1cccc(OC)c1-c1cc(Cl)cc(C(CC(=O)O)c2ncc(C)s2)c1` (stereo not shown) [compound 10], 7 nM; under `COc1ccc(C(C)(C)C)cc1-c1cccc([C@@H](CC(=O)O)c2ncco2)c1` [compound 11], 51 nM.
With `COc1ccc(C(C)(C)C)cc1-c1cccc(C(CC(=O)O)c2ncco2)c1` (stereo not shown) [compound 13], the IC50 came out at 103 nM.
Consider `COc1cc(C)cc(OC)c1-c1cccc(C(CC(=O)O)c2nccs2)c1` (stereo not shown) [compound 14], for which the IC50 turned out to be 66 nM.
Consider `COc1cc(C)cc(OC)c1-c1cccc(C(CC(=O)O)c2ncc(C)s2)c1` (stereo not shown) [compound 15], for which the concentration for half-maximal inhibition (IC50) was found to be 44 nM.
Take `COc1cc(C)cc(OC)c1-c1cccc(C(CC(=O)O)c2ncco2)c1` (stereo not shown) [compound 16]: the IC50 is 49 nM.
As to `COc1ccccc1-c1cccc(C(CC(=O)O)c2nccs2)c1` (stereo not shown) [compound 17], the concentration for half-maximal inhibition (IC50) worked out at 154 nM.
For `COc1ccc(C(C)(C)C)cc1-c1cccc(C(CC(=O)O)c2nc(C)c(C)s2)c1` (stereo not shown) [compound 18], the IC50 is 530 nM.
As to `COc1ccc(Cl)cc1-c1cccc(C(CC(=O)O)c2nc(C)c(C)s2)c1` (stereo not shown) [compound 19], the concentration for half-maximal inhibition (IC50) is 657 nM.
As for `COc1cccc(OC)c1-c1cccc(C(CC(=O)O)c2nccs2)c1` (stereo not shown) [compound 20], the half-inhibitory concentration (IC50) is 30 nM.
Take `COc1ccc(OC)c(-c2cccc(C(CC(=O)O)c3nccs3)c2)c1` (stereo not shown) [compound 21]: the IC50 was 129 nM.
Take `COc1ccc(C(F)(F)F)cc1-c1cccc(C(CC(=O)O)c2nccs2)c1` (stereo not shown) [compound 22]: the 50% inhibitory concentration (IC50) was found to be 134 nM.
Turning to `COC(=O)c1ccc(OC)c(-c2cccc(C(CC(=O)O)c3nccs3)c2)c1` (stereo not shown) [compound 23], the IC50 was 140 nM.
In the case of `COc1ccc(C)cc1-c1cccc(C(CC(=O)O)c2nccs2)c1` (stereo not shown) [compound 24], the IC50 came to 147 nM.
To `CCOc1ccc(C)cc1-c1cccc(C(CC(=O)O)c2nccs2)c1` (stereo not shown) [compound 25] belongs 147 nM; to `COc1cccc(F)c1-c1cccc(C(CC(=O)O)c2nccs2)c1` (stereo not shown) [compound 26], 148 nM; to `COc1ccc(F)c(F)c1-c1cccc(C(CC(=O)O)c2nccs2)c1` (stereo not shown) [compound 27], 156 nM.
In the case of `COc1cccc(OC(C)C)c1-c1cccc(C(CC(=O)O)c2nccs2)c1` (stereo not shown) [compound 28], the IC50 amounted to 165 nM.
In the case of `COc1ccc(-c2cccc(C(CC(=O)O)c3nccs3)c2)c(OC)c1` (stereo not shown) [compound 29], the 50% inhibitory concentration (IC50) was determined as 185 nM.
With `COc1cc(CO)ccc1-c1cccc(C(CC(=O)O)c2nccs2)c1` (stereo not shown) [compound 30], the IC50 was 201 nM.
`COc1cccc(Cl)c1-c1cccc(C(CC(=O)O)c2nccs2)c1` (stereo not shown) [compound 31]: the IC50 worked out at 292 nM.
To `COc1ccc(O)cc1-c1cccc(C(CC(=O)O)c2nccs2)c1` (stereo not shown) [compound 32] belongs 307 nM; to `COc1ccc(CO)cc1-c1cccc(C(CC(=O)O)c2nccs2)c1` (stereo not shown) [compound 33], 333 nM.
Under `COc1ccc(OC(F)(F)F)cc1-c1cccc(C(CC(=O)O)c2nccs2)c1` (stereo not shown) [compound 34] stands 389 nM.
Consider `CC(C)Oc1ccccc1-c1cccc(C(CC(=O)O)c2nccs2)c1` (stereo not shown) [compound 35], for which the 50% inhibitory concentration (IC50) is 409 nM.
To `COc1c(F)cc(F)cc1-c1cccc(C(CC(=O)O)c2nccs2)c1` (stereo not shown) [compound 36] belongs 467 nM; to `COc1cc(F)ccc1-c1cccc(C(CC(=O)O)c2nccs2)c1` (stereo not shown) [compound 37], 503 nM.
In the case of `COc1cc(Cl)ccc1-c1cccc(C(CC(=O)O)c2nccs2)c1` (stereo not shown) [compound 38], the half-maximal inhibitory concentration (IC50) is 590 nM.
Take `COc1ccc(C#N)cc1-c1cccc(C(CC(=O)O)c2nccs2)c1` (stereo not shown) [compound 39]: the IC50 was 618 nM.
As for `COc1c(C)cccc1-c1cccc(C(CC(=O)O)c2nccs2)c1` (stereo not shown) [compound 40], the IC50 stood at 844 nM.
For `COc1cccc(-c2cccc(C(CC(=O)O)c3nccs3)c2)c1OC` (stereo not shown) [compound 41], the concentration for half-maximal inhibition (IC50) was 950 nM.
Turning to `COc1c(F)cccc1-c1cccc(C(CC(=O)O)c2nccs2)c1` (stereo not shown) [compound 42], the half-inhibitory concentration (IC50) is 1040 nM.
For `O=C(O)CC(c1cccc(-c2ccccc2OC(F)(F)F)c1)c1nccs1` (stereo not shown) [compound 43], the IC50 was determined as 1230 nM.
Regarding `COc1c(Cl)cccc1-c1cccc(C(CC(=O)O)c2nccs2)c1` (stereo not shown) [compound 44], the IC50 came to 1280 nM.
On to `COc1cc(C(N)=O)ccc1-c1cccc(C(CC(=O)O)c2nccs2)c1` (stereo not shown) [compound 45], for which the IC50 turned out to be 1380 nM.
Consider `COc1cc(OC(F)(F)F)ccc1-c1cccc(C(CC(=O)O)c2nccs2)c1` (stereo not shown) [compound 46], for which the IC50 was 1530 nM.
Consider `COc1cccc(C#N)c1-c1cccc(C(CC(=O)O)c2nccs2)c1` (stereo not shown) [compound 47], for which the IC50 is 1750 nM.
For `COc1cc(C(F)(F)F)ccc1-c1cccc(C(CC(=O)O)c2nccs2)c1` (stereo not shown) [compound 48], the IC50 was 2280 nM.
In the case of `COc1c(-c2cccc(C(CC(=O)O)c3nccs3)c2)cccc1C(F)(F)F` (stereo not shown) [compound 49], the IC50 worked out at 7000 nM.
In the case of `COc1ccc(Cl)cc1-c1cccc(C(CC(=O)O)c2nnc(C)o2)c1` (stereo not shown) [compound 50], the IC50 came to 108 nM.
For the compound `COc1cccc(OC)c1-c1cccc(C(CC(=O)O)c2ncc(C)s2)c1` (stereo not shown) [compound 51], the IC50 worked out at 11 nM.
Under `COc1ccc(OC)c(-c2cccc(C(CC(=O)O)c3ncc(C)s3)c2)c1OC` (stereo not shown) [compound 52] stands 56 nM; under `COc1ccc(C)cc1-c1cccc(C(CC(=O)O)c2ncc(C)s2)c1` (stereo not shown) [compound 53], 85 nM.
Under `COc1ccc(OC)c(-c2cccc(C(CC(=O)O)c3ncc(C)s3)c2)c1` (stereo not shown) [compound 54] stands 94 nM; under `COc1ccc(F)cc1-c1cccc(C(CC(=O)O)c2ncc(C)s2)c1` (stereo not shown) [compound 55], 96 nM; under `COc1ccc(C(C)C)cc1-c1cccc(C(CC(=O)O)c2ncc(C)s2)c1` (stereo not shown) [compound 56], 97 nM.
Regarding `COc1ccc(CO)cc1-c1cccc(C(CC(=O)O)c2ncc(C)s2)c1` (stereo not shown) [compound 57], the concentration for half-maximal inhibition (IC50) amounted to 131 nM.
As to `COc1cccc(Cl)c1-c1cccc(C(CC(=O)O)c2ncc(C)s2)c1` (stereo not shown) [compound 58], the IC50 stood at 155 nM.
With `COc1cccc(F)c1-c1cccc(C(CC(=O)O)c2ncc(C)s2)c1` (stereo not shown) [compound 59], the 50% inhibitory concentration (IC50) is 171 nM.
With `COc1ccc(OC(F)(F)F)cc1-c1cccc(C(CC(=O)O)c2ncc(C)s2)c1` (stereo not shown) [compound 60], the IC50 amounted to 269 nM.
For the compound `COc1c(F)cc(F)cc1-c1cccc(C(CC(=O)O)c2ncc(C)s2)c1` (stereo not shown) [compound 61], the IC50 came to 367 nM.
As for `COc1ccc(Cl)cc1-c1cccc(C(CC(=O)O)c2ncc(C)s2)c1` (stereo not shown) [compound 62], the IC50 is 262 nM.
On to `COc1ccc(F)cc1-c1ccc(OC)c(C(CC(=O)O)c2ncc(C)s2)c1` (stereo not shown) [compound 63], for which the IC50 was 1170 nM.
Regarding `COc1ccc(C(C)C)cc1-c1cccc(C(CC(=O)O)c2nnc(C)o2)c1` (stereo not shown) [compound 64], the half-inhibitory concentration (IC50) is 49 nM.
Under `COc1ccc(Cl)cc1-c1ccc(OC)c(C(CC(=O)O)c2ncc(C)s2)c1` (stereo not shown) [compound 65] stands 3050 nM; under `COc1ccccc1-c1ccc(OC)c(C(CC(=O)O)c2ncc(C)s2)c1` (stereo not shown) [compound 66], 4410 nM; under `COc1ccc(C)cc1-c1ccc(OC)c(C(CC(=O)O)c2ncc(C)s2)c1` (stereo not shown) [compound 67], 9690 nM.
Regarding `COc1cccc(F)c1-c1cc(Cl)cc(C(CC(=O)O)c2ncc(C)s2)c1` (stereo not shown) [compound 71], the half-inhibitory concentration (IC50) came out at 16 nM.
Under `COc1ccc(OC)c(-c2cc(Cl)cc(C(CC(=O)O)c3ncc(C)s3)c2)c1OC` (stereo not shown) [compound 72] stands 18 nM; under `COc1cc(C)cc(OC)c1-c1cc(Cl)cc(C(CC(=O)O)c2ncc(C)s2)c1` (stereo not shown) [compound 74], 19 nM; under `COc1ccccc1-c1cc(Cl)cc(C(CC(=O)O)c2ncc(C)s2)c1` (stereo not shown) [compound 75], 21 nM.
